The record followed here is ChEMBL document CHEMBL3608278 (J Med Chem, 2015).

The target of experiment [1] is T1, Potassium voltage-gated channel subfamily A member 3 (Homo sapiens, UniProt P22001). The arrangement: species or system Blood.
Experiment [2] has as its target T1, Potassium voltage-gated channel subfamily A member 3. The class given is cell-based, CHO-K1.
The target is the same in experiment [3]. Nature of the experiment: cell-based. Also noted: species or system Blood.

T1 sequence (P22001 whole entry): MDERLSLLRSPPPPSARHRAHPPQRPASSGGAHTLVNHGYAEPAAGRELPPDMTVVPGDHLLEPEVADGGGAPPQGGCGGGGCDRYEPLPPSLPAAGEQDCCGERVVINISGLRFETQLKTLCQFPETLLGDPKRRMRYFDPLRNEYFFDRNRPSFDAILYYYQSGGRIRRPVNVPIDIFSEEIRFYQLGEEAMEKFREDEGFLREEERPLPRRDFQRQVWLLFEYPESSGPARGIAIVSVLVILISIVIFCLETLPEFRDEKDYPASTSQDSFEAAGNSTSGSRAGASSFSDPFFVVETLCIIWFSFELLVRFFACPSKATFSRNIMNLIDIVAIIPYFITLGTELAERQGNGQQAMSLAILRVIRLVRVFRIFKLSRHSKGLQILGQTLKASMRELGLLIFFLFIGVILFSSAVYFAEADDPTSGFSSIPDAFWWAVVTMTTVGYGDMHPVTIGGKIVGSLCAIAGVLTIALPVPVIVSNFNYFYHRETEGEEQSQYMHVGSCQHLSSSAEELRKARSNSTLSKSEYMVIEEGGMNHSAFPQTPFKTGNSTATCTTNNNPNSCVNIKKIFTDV

For orientation: IC50 means the concentration at which inhibition is half-maximal. Low values mean greater potency, high ones weaker potency. With `CC[C@H](C)[C@@H]1NC(=O)[C@@H](NC(=O)[C@H](CO)NC(=O)[C@@H](N)CCCNC(=N)N)CSSC[C@@H](C(=O)O)NC(=O)[C@H]([C@@H](C)O)NC(=O)CNC(=O)[C@@H]2CSSC[C@@H]3NC(=O)[C@H](CCC(N)=O)NC(=O)[C@H](Cc4ccccc4)NC(=O)[C@H](C)NC(=O)[C@H]([C@@H](C)O)NC(=O)[C@H](CSSC[C@H](NC(=O)[C@H](Cc4ccccc4)NC(=O)[C@H](CO)NC(=O)[C@H](CC(C)C)NC(=O)[C@H](CCCNC(=N)N)NC(=O)[C@H](CCCNC(=N)N)NC(=O)[C@H](CCCCN)NC(=O)[C@H](CCSC)NC(=O)[C@H](CO)NC(=O)[C@H](Cc4cnc[nH]4)NC(=O)[C@H](CCCCN)NC3=O)C(=O)N[C@@H](CCCNC(=N)N)C(=O)N[C@@H](CCCCN)C(=O)N[C@@H]([C@@H](C)O)C(=O)N2)NC(=O)[C@H](CCCNC(=N)N)NC(=O)[C@H](CO)NC(=O)[C@H](CCCCN)NC(=O)[C@@H]2CCCN2C(=O)[C@H]([C@@H](C)CC)NC(=O)[C@H]([C@@H](C)O)NC(=O)[C@H](CC(=O)O)NC1=O`, the IC50 in experiment [1] is above 100 nM; in experiment [2], above 3.33 nM; in experiment [3], above 100 nM.

`CC[C@H](C)[C@@H]1NC(=O)[C@@H](NC(=O)[C@H](CO)NC(=O)[C@@H](N)CCCNC(=N)N)CSSC[C@@H](C(=O)O)NC(=O)[C@H]([C@@H](C)O)NC(=O)CNC(=O)[C@@H]2CSSC[C@@H]3NC(=O)[C@H](CCC(N)=O)NC(=O)[C@H](Cc4ccccc4)NC(=O)[C@H](C)NC(=O)[C@H]([C@@H](C)O)NC(=O)[C@H](CSSC[C@H](NC(=O)[C@H](Cc4ccccc4)NC(=O)[C@H](CO)NC(=O)[C@H](CC(C)C)NC(=O)[C@H](CCCNC(=N)N)NC(=O)[C@H](Cc4ccc(O)cc4)NC(=O)[C@H](CCCCN)NC(=O)[C@H](CCSC)NC(=O)[C@H](CO)NC(=O)[C@H](Cc4cnc[nH]4)NC(=O)[C@H](CCCCN)NC3=O)C(=O)N[C@@H](CCCNC(=N)N)C(=O)N[C@@H](CCCCN)C(=O)N[C@@H]([C@@H](C)O)C(=O)N2)NC(=O)[C@H](CCCNC(=N)N)NC(=O)[C@H](CCCCN)NC(=O)[C@H](CCCCN)NC(=O)[C@@H]2CCCN2C(=O)[C@H]([C@@H](C)CC)NC(=O)[C@H]([C@@H](C)O)NC(=O)[C@H](CC(=O)O)NC1=O`: the IC50 in experiment [1] turned out to be 0.082 nM; in experiment [2] it was 0.184 nM; in experiment [3] it was 0.052 nM.

On to `CC[C@H](C)[C@@H]1NC(=O)[C@@H](NC(=O)[C@H](CO)NC(=O)[C@@H](N)CCCNC(=N)N)CSSC[C@@H](C(=O)O)NC(=O)[C@H]([C@@H](C)O)NC(=O)CNC(=O)[C@@H]2CSSC[C@@H]3NC(=O)[C@H](CCC(N)=O)NC(=O)[C@H](Cc4ccccc4)NC(=O)[C@H](C)NC(=O)[C@H]([C@@H](C)O)NC(=O)[C@H](CSSC[C@H](NC(=O)[C@H](Cc4ccccc4)NC(=O)[C@H](CO)NC(=O)[C@H](CC(C)C)NC(=O)[C@H](CCCNC(=N)N)NC(=O)[C@H](Cc4ccc(O)cc4)NC(=O)[C@H](CCCNC(=N)N)NC(=O)[C@H](CCSC)NC(=O)[C@H](CO)NC(=O)[C@H](Cc4cnc[nH]4)NC(=O)[C@H](CCCCN)NC3=O)C(=O)N[C@@H](CCCNC(=N)N)C(=O)N[C@@H](CCCCN)C(=O)N[C@@H]([C@@H](C)O)C(=O)N2)NC(=O)[C@H](CCCNC(=N)N)NC(=O)[C@H](CO)NC(=O)[C@H](CCCCN)NC(=O)[C@@H]2CCCN2C(=O)[C@H]([C@@H](C)CC)NC(=O)[C@H]([C@@H](C)O)NC(=O)[C@H](CC(=O)O)NC1=O`, for which the values for the half-inhibitory concentration (IC50) in experiment [1], in experiment [2] and in experiment [3] were above 100 nM, above 3.33 nM and above 100 nM, respectively.

In the case of `CC[C@H](C)[C@@H]1NC(=O)[C@@H](NC(=O)[C@H](CO)NC(=O)[C@@H](N)CCCNC(=N)N)CSSC[C@@H](C(=O)O)NC(=O)[C@H]([C@@H](C)O)NC(=O)CNC(=O)[C@@H]2CSSC[C@@H]3NC(=O)[C@H](CCC(N)=O)NC(=O)[C@H](Cc4ccccc4)NC(=O)[C@H](C)NC(=O)[C@H]([C@@H](C)O)NC(=O)[C@H](CSSC[C@H](NC(=O)[C@H](Cc4ccccc4)NC(=O)[C@H](CO)NC(=O)[C@H](CC(C)C)NC(=O)[C@H](CCCNC(=N)N)NC(=O)[C@H](Cc4ccc(O)cc4)NC(=O)[C@H](CCCCN)NC(=O)[C@H](CCSC)NC(=O)[C@H](CO)NC(=O)[C@H](Cc4cnc[nH]4)NC(=O)[C@H](CCCCN)NC3=O)C(=O)N[C@@H](CCCNC(=N)N)C(=O)N[C@@H](CCCCN)C(=O)N[C@@H]([C@@H](C)O)C(=O)N2)NC(=O)[C@H](CCC(=O)O)NC(=O)[C@H](CO)NC(=O)[C@H](CCCCN)NC(=O)[C@@H]2CCCN2C(=O)[C@H]([C@@H](C)CC)NC(=O)[C@H]([C@@H](C)O)NC(=O)[C@H](CC(=O)O)NC1=O`, the IC50 in experiment [1] stood at 4.54 nM; in experiment [2], 0.983 nM; in experiment [3] it was 1.32 nM.

On to `CC[C@H](C)[C@@H]1NC(=O)[C@@H](NC(=O)[C@H](CO)NC(=O)[C@@H](N)CCCNC(=N)N)CSSC[C@@H](C(=O)O)NC(=O)[C@H]([C@@H](C)O)NC(=O)CNC(=O)[C@@H]2CSSC[C@@H]3NC(=O)[C@H](CCC(N)=O)NC(=O)[C@H](Cc4ccccc4)NC(=O)[C@H](C)NC(=O)[C@H](CCCCN)NC(=O)[C@H](CSSC[C@H](NC(=O)[C@H](Cc4ccccc4)NC(=O)[C@H](CO)NC(=O)[C@H](CC(C)C)NC(=O)[C@H](CCCNC(=N)N)NC(=O)[C@H](Cc4ccc(O)cc4)NC(=O)[C@H](CCCCN)NC(=O)[C@H](CCSC)NC(=O)[C@H](CO)NC(=O)[C@H](Cc4cnc[nH]4)NC(=O)[C@H](CCCCN)NC3=O)C(=O)N[C@@H](CCCNC(=N)N)C(=O)N[C@@H](CCCCN)C(=O)N[C@@H]([C@@H](C)O)C(=O)N2)NC(=O)[C@H](CCCNC(=N)N)NC(=O)[C@H](CO)NC(=O)[C@H](CCCCN)NC(=O)[C@@H]2CCCN2C(=O)[C@H]([C@@H](C)CC)NC(=O)[C@H]([C@@H](C)O)NC(=O)[C@H](CC(=O)O)NC1=O`, for which the figures for the IC50 in experiment [1], in experiment [2] and in experiment [3] were 0.363 nM, 0.154 nM and 0.257 nM, respectively.

`CCCC[C@@H]1NC(=O)[C@H](CO)NC(=O)[C@H](Cc2c[nH]cn2)NC(=O)[C@H](CCCCN)NC(=O)[C@@H]2CSSC[C@@H]3NC(=O)[C@H]([C@@H](C)O)NC(=O)[C@H](CCCCN)NC(=O)[C@H](CCCNC(=N)N)NC(=O)[C@H](CSSC[C@H](NC(=O)[C@H](CCCNC(=N)N)NC(=O)[C@H](CO)NC(=O)[C@H](CCCCN)NC(=O)[C@@H]4CCCN4C(=O)[C@H]([C@@H](C)CC)NC(=O)[C@H]([C@@H](C)O)NC(=O)[C@H](CC(=O)O)NC(=O)[C@H]([C@@H](C)CC)NC(=O)[C@@H](NC(=O)[C@H](CO)NC(=O)[C@@H](N)CCCNC(=N)N)CSSC[C@@H](C(=O)N[C@@H](C)C(=O)O)NC(=O)[C@H]([C@@H](C)O)NC(=O)CNC3=O)C(=O)N[C@@H]([C@@H](C)O)C(=O)N[C@@H](C)C(=O)N[C@@H](Cc3ccccc3)C(=O)N[C@@H](CCCCN)C(=O)N2)NC(=O)[C@H](Cc2ccccc2)NC(=O)[C@H](CO)NC(=O)[C@H](CC(C)C)NC(=O)[C@H](CCCNC(=N)N)NC(=O)[C@H](Cc2ccc(O)cc2)NC(=O)[C@H](CCCCN)NC1=O`: the IC50 worked out at 0.515 nM in experiment [1], 0.071 nM in experiment [2] and 0.305 nM in experiment [3].

Regarding `CC[C@H](C)[C@@H]1NC(=O)[C@@H](NC(=O)[C@H](CO)NC(=O)[C@@H](N)CCCNC(=N)N)CSSC[C@@H](C(=O)O)NC(=O)[C@H]([C@@H](C)O)NC(=O)CNC(=O)[C@@H]2CSSC[C@@H]3NC(=O)[C@H](CCC(N)=O)NC(=O)[C@H](Cc4ccccc4)NC(=O)[C@H](C)NC(=O)[C@H]([C@@H](C)O)NC(=O)[C@H](CSSC[C@H](NC(=O)[C@H](Cc4ccccc4)NC(=O)[C@H](CO)NC(=O)[C@H](CC(C)C)NC(=O)[C@H](CCCNC(=N)N)NC(=O)[C@H](Cc4ccc(O)cc4)NC(=O)[C@H](CCCCN)NC(=O)[C@H](CCSC)NC(=O)[C@H](CO)NC(=O)[C@H](Cc4cnc[nH]4)NC(=O)[C@H](CCCCN)NC3=O)C(=O)N[C@@H](CCCNC(=N)N)C(=O)N[C@@H](CCCCN)C(=O)N[C@@H]([C@@H](C)O)C(=O)N2)NC(=O)[C@H](CCCNC(=N)N)NC(=O)[C@H](CO)NC(=O)[C@H](CCCCN)NC(=O)[C@@H]2CCCN2C(=O)[C@H](CCC(=O)O)NC(=O)[C@H]([C@@H](C)O)NC(=O)[C@H](CC(=O)O)NC1=O`, the figures for the IC50 in experiment [1], in experiment [2] and in experiment [3] were 19.5 nM, 1.31 nM and 5 nM, respectively.

On to `CC[C@H](C)[C@@H]1NC(=O)[C@@H](NC(=O)[C@H](CO)NC(=O)[C@@H](N)CCCNC(=N)N)CSSC[C@@H](C(=O)O)NC(=O)[C@H]([C@@H](C)O)NC(=O)CNC(=O)[C@@H]2CSSC[C@@H]3NC(=O)[C@H](CCC(N)=O)NC(=O)[C@H](Cc4ccccc4)NC(=O)[C@H](C)NC(=O)[C@H]([C@@H](C)O)NC(=O)[C@H](CSSC[C@H](NC(=O)[C@H](Cc4ccccc4)NC(=O)[C@H](CO)NC(=O)[C@H](CC(C)C)NC(=O)[C@H](CCCNC(=N)N)NC(=O)[C@H](Cc4ccc(O)cc4)NC(=O)[C@H](CCCCN)NC(=O)[C@H](CCSC)NC(=O)[C@H](CO)NC(=O)[C@H](Cc4cnc[nH]4)NC(=O)[C@H](CCCCN)NC3=O)C(=O)N[C@@H](CCCNC(=N)N)C(=O)N[C@@H](CCCCN)C(=O)N[C@@H]([C@@H](C)O)C(=O)N2)NC(=O)[C@H](CCCNC(=N)N)NC(=O)[C@H](CO)NC(=O)[C@H](CCCCN)NC(=O)[C@@H]2CCCN2C(=O)[C@H](C)NC(=O)[C@H]([C@@H](C)O)NC(=O)[C@H](CC(=O)O)NC1=O`, for which the values for the IC50 in experiment [1], in experiment [2] and in experiment [3] were 1.98 nM, 0.201 nM and 0.748 nM, respectively.
